Assay results published in US20240294910A1, “NOVEL THERAPEUTIC AGENT FOR SEPTICEMIA, AND A METHOD FOR SCREENING FOR SAME” (Chugai Seiyaku Kabushiki Kaisha, priority 2014, published 2024).

Legend:
Format in all cases: cell-based, mouse
IL-6 mRNA = IL-6 mRNA expression by qPCR in LPS-stimulated peritoneal macrophages; details: LPS (1 g/mL), test agent 20 μM, vs absence of CPZ, FIG. 7
Description: (§1) Peritoneal macrophages from C57BL/6 mice (aged 6 to 8 weeks) were stimulated with LPS ([…]) in the presence or absence of a test agent (20 μM). The relative expression levels of mRNAs of Arid5A, IL-6, and TNF-α were determined in the stimulated peritoneal macrophages by quantitative PCR (qPCR). The expression level of Arid5A mRNA was determined 2 hours after LPS stimulation. The expression levels of IL-6 mRNA and TNF-α mRNA were determined 2 hours, 6 hours, 12 hours, and 24 hours after LPS stimulation. FIGS. 6 to 8 show the results when chlorpromazine (CPZ) was used as a test agent.

TNF-α mRNA = TNF-α mRNA expression by qPCR in LPS-stimulated peritoneal macrophages; details: LPS (1 g/mL), test agent 20 μM, determined 2, 6, 12 and 24 hours after LPS stimulation, FIG. 8
Description: as §1

Arid5A mRNA = Arid5A mRNA expression by qPCR in LPS-stimulated peritoneal macrophages; details: peritoneal macrophages from C57BL/6 mice, LPS (1 g/mL), test agent 20 μM, 2 hours after LPS stimulation, vs absence of CPZ; FIG. 6
Description: as §1

## CN(C)CCCN1c2ccccc2Sc2ccc(Cl)cc21 [CPZ, chlorpromazine]
IL-6 mRNA; 2 hours after LPS stimulation
  expression of IL-6 mRNA (qPCR): markedly suppressed
IL-6 mRNA; 6 hours after LPS stimulation
  expression of IL-6 mRNA (qPCR): markedly suppressed
TNF-α mRNA
  expression of TNF-α mRNA (qPCR): no effect
Arid5A mRNA
  expression of Arid5A mRNA (qPCR): markedly suppressed
